Measured values as given in patent US11780839B2, “Compounds for treating Huntington's disease” (PTC THERAPEUTICS, INC., priority 2018, dated 2023).

Tested on: Endogenous Huntingtin Protein
Experiment: Endogenous Huntingtin Protein Assay (ELISA-based Meso Scale Discovery electrochemiluminescence)
Type: cell-based
Conditions: MSD electrochemiluminescence, Table 1
Method in brief: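 Sandwich MSD electrochemiluminescence immunoassay. Capture used MW1 (expanded polyglutamine) or MAB2166 antibody coated at 1 μg/mL overnight at 4 °C. Samples were bound overnight at 4 °C, then a rabbit monoclonal detection antibody and SULFO-TAG anti-rabbit, each at 0.25 μg/mL, were applied for 1 h at room temperature.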

Structure (SMILES)	IC50 [µM]
CN(c1ncc(-c2ccc(-c3ccc4[nH]ncc4n3)cc2O)nn1)C1CC(C)(C)NC(C)(C)C1 [Cpd 136, 2-{3-[methyl(2,2,6,6-tetramethylpiperidin-4-yl)amino]-1,2,4-triazin-6-yl}-5-(1H-pyrazolo[4,3-b]pyridin-5-yl)phenol]	≤ 0.1
Oc1cc(-c2cn[nH]c2)ccc1-c1cnc(N2CCC(NC3CC3)C2)nn1 (stereo not drawn) [Cpd 137, 2-{3-[3-(cyclopropylamino)pyrrolidin-1-yl]-1,2,4-triazin-6-yl}-5-(1H-pyrazol-4-yl)phenol]	≤ 0.1
CC(C)(C)NC1CCN(c2ncc(-c3ccc(-c4cn[nH]c4)cc3O)nn2)C1 (stereo not drawn) [Cpd 138, 2-{3-[3-(tert-butylamino)pyrrolidin-1-yl]-1,2,4-triazin-6-yl}-5-(1H-pyrazol-4-yl)phenol]	≤ 0.1
CN(c1ncc(-c2ccc(-n3cnc(C#N)c3)cc2O)nn1)C1CC(C)(C)NC(C)(C)C1 [Cpd 139, 1-(3-hydroxy-4-{3-[methyl(2,2,6,6-tetramethylpiperidin-4-yl)amino]-1,2,4-triazin-6-yl}phenyl)-1H-imidazole-4-carbonitrile]	0.1 to 0.5
CC(=O)c1cn(-c2ccc(-c3cnc(N(C)C4CC(C)(C)NC(C)(C)C4)nn3)c(O)c2)cn1 [Cpd 140, 1-[1-(3-hydroxy-4-{3-[methyl(2,2,6,6-tetramethylpiperidin-4-yl)amino]-1,2,4-triazin-6-yl}phenyl)-1H-imidazol-4-yl]ethan-l-one]	≤ 0.1
Cc1cn2nc(-c3ccc(-c4cnc(N(C)C5CC(C)(C)NC(C)(C)C5)nn4)c(O)c3)cc(C)c2n1 [Cpd 141, 5-(2,8-dimethylimidazo[1,2-b]pyridazin-6-yl)-2-{3-[methyl(2,2,6,6-tetramethylpiperidin-4-yl)amino]-1,2,4-triazin-6-yl}phenol]	≤ 0.1
Cc1cn2nc(-c3ccc(-c4cnc(N(C)C5CC(C)(C)NC(C)(C)C5)nn4)c(O)c3)ccc2n1 [Cpd 142, 5-(2-methylimidazo[1,2-b]pyridazin-6-yl)-2-{3-[methyl(2,2,6,6-tetramethylpiperidin-4-yl)amino]-1,2,4-triazin-6-yl}phenol]	≤ 0.1
CN(c1ncc(-c2ccc(-c3nnn(C)n3)cc2O)nn1)C1CC(C)(C)NC(C)(C)C1 [Cpd 143, 2-{3-[methyl(2,2,6,6-tetramethylpiperidin-4-yl)amino]-1,2,4-triazin-6-yl}-5-(2-methyl-2H-tetrazol-5-yl)phenol]	≤ 0.1
COc1cnc(-c2ccc(-c3cnc(N(C)C4CC(C)(C)NC(C)(C)C4)nn3)c(O)c2)nn1 [Cpd 144, 5-(6-methoxy-1,2,4-triazin-3-yl)-2-{3-[methyl(2,2,6,6-tetramethylpiperidin-4-yl)amino]-1,2,4-triazin-6-yl}phenol]	≤ 0.1
CN(c1ncc(-c2ccc(-c3ccc4ncoc4c3)cc2O)nn1)C1CC(C)(C)NC(C)(C)C1 [Cpd 145, 5-(1,3-benzoxazol-6-yl)-2-{3-[methyl(2,2,6,6-tetramethylpiperidin-4-yl)amino]-1,2,4-triazin-6-yl}phenol]	≤ 0.1
CN(c1ncc(-c2ccc(-c3cc(=O)n(C)cn3)cc2O)nn1)C1CC(C)(C)NC(C)(C)C1 [Cpd 146, 6-(3-hydroxy-4-{3-[methyl(2,2,6,6-tetramethylpiperidin-4-yl)amino]-1,2,4-triazin-6-yl}phenyl)-3-methylpyrimidin-4(3H)-one]	≤ 0.1
CN(c1ncc(-c2ccc(-c3cnn(C)c(=O)c3)cc2O)nn1)C1CC(C)(C)NC(C)(C)C1 [Cpd 147, 5-(3-hydroxy-4-{3-[methyl(2,2,6,6-tetramethylpiperidin-4-yl)amino]-1,2,4-triazin-6-yl}phenyl)-2-methylpyridazin-3(2H)-one]	≤ 0.1
CC(C)NC1CCN(c2ncc(-c3ccc(-c4cn[nH]c4)cc3O)nn2)C1 (stereo not drawn) [Cpd 148, 2-(3-{3-[(propan-2-yl)amino]pyrrolidin-1-yl}-1,2,4-triazin-6-yl)-5-(1H-pyrazol-4-yl)phenol]	≤ 0.1
CN1CCC2(CC1)CN(c1ncc(-c3ccc(-c4c[nH]nc4F)cc3O)nn1)C2 [Cpd 149, 5-(3-fluoro-1H-pyrazol-4-yl)-2-[3-(7-methyl-2,7-diazaspiro[3.5]nonan-2-yl)-1,2,4-triazin-6-yl]phenol]	≤ 0.1
Oc1cc(-c2c[nH]nc2F)ccc1-c1cnc(N2CC[C@H]3NCC[C@H]3C2)nn1 [Cpd 150, 5-(3-fluoro-1H-pyrazol-4-yl)-2-{3-[(3aS,7aR)-octahydro-5H-pyrrolo[3,2-c]pyridin-5-yl]-1,2,4-triazin-6-yl}phenol]	≤ 0.1
Oc1cc(-c2c[nH]nc2F)ccc1-c1cnc(N2CC3(CCNCC3)C2)nn1 [Cpd 151, 2-[3-(2,7-diazaspiro[3.5]nonan-2-yl)-1,2,4-triazin-6-yl]-5-(3-fluoro-1H-pyrazol-4-yl)phenol]	≤ 0.1
CN(c1ncc(-c2ccc(-c3ccn4nncc4c3)cc2O)nn1)C1CC(C)(C)NC(C)(C)C1 [Cpd 152, 2-{3-[methyl(2,2,6,6-tetramethylpiperidin-4-yl)amino]-1,2,4-triazin-6-yl}-5-([1,2,3]triazolo[1,5-a]pyridin-5-yl)phenol]	≤ 0.1

Structure (SMILES)	IC50 [µM]
CN1CC[C@H]2CN(c3ncc(-c4ccc(-c5c[nH]nc5F)cc4O)nn3)CC[C@H]21 [Cpd 153, 5-(3-fluoro-1H-pyrazol-4-yl)-2-{3-[(3aS,7aR)-1-methyloctahydro-5H-pyrrolo[3,2-c]pyridin-5-yl]-1,2,4-triazin-6-yl}phenol]	0.1 to 0.5
CCC(C)(C)NC1CCN(c2ncc(-c3ccc(-c4cn[nH]c4)cc3O)nn2)C1 (stereo not drawn) [Cpd 154, 2-(3-{3-[(2-methylbutan-2-yl)amino]pyrrolidin-1-yl}-1,2,4-triazin-6-yl)-5-(1H-pyrazol-4-yl)phenol]	≤ 0.1
CN(c1ncc(-c2ccc(-c3ccn4nnnc4c3)cc2O)nn1)C1CC(C)(C)NC(C)(C)C1 [Cpd 155, 2-{3-[methyl(2,2,6,6-tetramethylpiperidin-4-yl)amino]-1,2,4-triazin-6-yl}-5-(tetrazolo[1,5-a]pyridin-7-yl)phenol]	≤ 0.1
CN(c1ncc(-c2ccc(-c3n[nH]cc3F)cc2O)nn1)C1CC(C)(C)NC(C)(C)C1 [Cpd 156, 5-(4-fluoro-1H-pyrazol-3-yl)-2-{3-[methyl(2,2,6,6-tetramethylpiperidin-4-yl)amino]-1,2,4-triazin-6-yl}phenol]	≤ 0.1
Oc1cc(-c2cn[nH]c2)ccc1-c1cnc(N2CCC(NC34CC5CC(CC(C5)C3)C4)C2)nn1 (stereo not drawn) [Cpd 157, 2-(3-{3-[(adamantan-1-yl)amino]pyrrolidin-1-yl}-1,2,4-triazin-6-yl)-5-(1H-pyrazol-4-yl)phenol]	0.1 to 0.5
CN(c1ncc(-c2ccc(-c3cnc4[nH]ccc4n3)cc2O)nn1)C1CC(C)(C)NC(C)(C)C1 [Cpd 158, 2-{3-[methyl(2,2,6,6-tetramethylpiperidin-4-yl)amino]-1,2,4-triazin-6-yl}-5-(5H-pyrrolo[2,3-b]pyrazin-2-yl)phenol]	1 to 3
Oc1cc(-c2cn[nH]c2)ccc1-c1cnc(N2CCC(NC3C4CC5CC(C4)CC3C5)C2)nn1 (stereo not drawn) [Cpd 159, 2-(3-{3-[(adamantan-2-yl)amino]pyrrolidin-1-yl}-1,2,4-triazin-6-yl)-5-(1H-pyrazol-4-yl)phenol]	1 to 3
CC12CC3CC(C)(C1)CC(NC1CCN(c4ncc(-c5ccc(-c6cn[nH]c6)cc5O)nn4)C1)(C3)C2 (stereo not drawn) [Cpd 160, 2-(3-{3-[(3,5-dimethyladamantan-1-yl)amino]pyrrolidin-1-yl}-1,2,4-triazin-6-yl)-5-(1H-pyrazol-4-yl)phenol]	1 to 3
CN(c1ncc(-c2ccc(-n3cc(CO)cn3)cc2O)nn1)C1CC(C)(C)NC(C)(C)C1 [Cpd 161, 5-[4-(hydroxymethyl)-1H-pyrazol-1-yl]-2-{3-[methyl(2,2,6,6-tetramethylpiperidin-4-yl)amino]-1,2,4-triazin-6-yl}phenol]	≤ 0.1
CN(C)[C@@H]1CC[C@@H]2CN(c3ncc(-c4ccc(-c5cn[nH]c5)cc4O)nn3)C[C@@H]21 [Cpd 162, 2-{3-[(3aR,4R,6aS)-4-(dimethylamino)hexahydrocyclopenta[c]pyrrol-2(1H)-yl]-1,2,4-triazin-6-yl}-5-(1H-pyrazol-4-yl)phenol]	0.1 to 0.5
CN(c1ncc(-c2ccc(-c3ccc4ncn(C)c4n3)cc2O)nn1)C1CC(C)(C)NC(C)(C)C1 [Cpd 163, 5-(3-methyl-3H-imidazo[4,5-b]pyridin-5-yl)-2-{3-[methyl(2,2,6,6-tetramethylpiperidin-4-yl)amino]-1,2,4-triazin-6-yl}phenol]	1 to 3
CN(c1ncc(-c2ccc(-c3ccc4c(ncn4C)n3)cc2O)nn1)C1CC(C)(C)NC(C)(C)C1 [Cpd 164, 5-(1-methyl-1H-imidazo[4,5-b]pyridin-5-yl)-2-{3-[methyl(2,2,6,6-tetramethylpiperidin-4-yl)amino]-1,2,4-triazin-6-yl}phenol]	0.1 to 0.5
N[C@H]1CC[C@@H]2CN(c3ncc(-c4ccc(-c5cn[nH]c5)cc4O)nn3)C[C@@H]21 [Cpd 165, 2-{3-[(3aR,4S,6aS)-4-aminohexahydrocyclopenta[c]pyrrol-2(1H)-yl]-1,2,4-triazin-6-yl}-5-(1H-pyrazol-4-yl)phenol]	≤ 0.1
CN1CCC2CN(c3ncc(-c4ccc(-c5cn[nH]c5)cc4O)nn3)CC2C1 (stereo not drawn) [Cpd 166, 2-[3-(5-methyloctahydro-2H-pyrrolo[3,4-c]pyridin-2-yl)-1,2,4-triazin-6-yl]-5-(1H-pyrazol-4-yl)phenol]	≤ 0.1
CN(C)[C@H]1CC[C@@H]2CN(c3ncc(-c4ccc(-c5cn[nH]c5)cc4O)nn3)C[C@@H]21 [Cpd 167, 2-{3-[(3aR,4S,6aS)-4-(dimethylamino)hexahydrocyclopenta[c]pyrrol-2(1H)-yl]-1,2,4-triazin-6-yl}-5-(1H-pyrazol-4-yl)phenol]	≤ 0.1
Cc1cc(-c2ccc(-c3cnc(N(C)C4CC(C)(C)NC(C)(C)C4)nn3)c(O)c2)nc(O)c1N [Cpd 168, 3-amino-6-(3-hydroxy-4-{3-[methyl(2,2,6,6-tetramethylpiperidin-4-yl)amino]-1,2,4-triazin-6-yl}phenyl)-4-methylpyridin-2-ol]	0.1 to 0.5
